pIC50: −log10 of the molar value.
Key:
human TRPV1 = target: T1, human TRPV1 (Homo sapiens, UniProt Q8NER1); experiment: Block of capsaicin-induced Ca2+ influx, human assay (hTRPV1/HEK293, FLIPR); format: cell-based; details: HEK293 cells transfected with human TRPV1; 150 nM capsaicin challenge; mean; > value = solubility limit in assay medium
T1 construct: expressed in transfected cells; host or cells: HEK293
Description: (§1) HEK293 cells were transfected with human TRPV1 cloned in pcDNA3.1zeo(+) using the Effectene non-liposomal lipid based transfection kit (Qiagen) (hTRPV1/HEK293). hTRPV1/HEK293 cells were routinely grown as monolayers under selection in zeocin (200 μg/mL; Invitrogen) in Dulbecco's Modified Eagle Medium (DMEM, Gibco BRL) supplemented with 10% fetal bovine serum, and penicillin/streptomycin (50 units/mL) in 5% CO2 at 37° C. Cells were passaged frequently, every 3-5 days, to avoid overgrowth, depletion of essential medium components, or acidic medium exposure. Cells were passaged using a brief wash in 0.05% trypsin with 1 mM EDTA, followed by dissociation in divalent-free phosphate-buffered saline (Hyclone #SH30028.02). […] The assay buffer was composed of 130 mM NaCl, 2 mM KCl, 2 mM MgCl2, 10 mM HEPES, 5 mM glucose, and either 2 mM or 20 μM CaCl2. On the day of the experiment, the culture medium was replaced with 2 mM calcium assay buffer using an automated plate washer (ELx405; Biotek, VT). […] After loading the cells, the dye solution was replaced with 50 μL/well of 20 μM calcium assay buffer using the ELx405 plate washer. Test compounds (50 μL/well) were added to the plate and incubated for 30 min. Intracellular Ca^2+ levels were subsequently assayed using a Fluorometric Imaging Plate Reader (FLIPR™ instrument, Molecular Devices, CA) to simultaneously monitor Fluo-3 fluorescence in all wells (λexcitation=488 nm, λemission=540 nm) during challenge with agonist (capsaicin). The IC50 values were determined. […] The contents of the wells were mixed 3 times (40 μL mix volume) immediately after the additions were made. Concentration-dependence of block was determined by exposing each well of cells in duplicate rows of a 96-well plate to a serial dilution of test compound. The concentration series usually started at 10 μM with a three-fold serial decrement in concentration. The magnitude of the capsaicin response was determined by measuring the change in fluo3 fluorescence before and 100 seconds after the addition of the agonist. Data were analyzed using a non-linear regression program (Origin; OriginLab, MA).
(§2) IC50 values shown are the average (mean) of the results obtained. […] Compounds were tested as in the free base, trifluoroacetic acid salt, or hydrochloride salt form.

rat TRPV1 = target: T2, rat TRPV1 (Rattus norvegicus, UniProt O35433); experiment: Block of capsaicin-induced Ca2+ influx, rat assay (rTRPV1/HEK293, FLIPR); format: cell-based; details: HEK293 cells transfected with rat TRPV1; capsaicin challenge; mean; > value = solubility limit in assay medium; read-out: Rat IC50
T2 construct: expressed in transfected cells; host or cells: HEK293
Description: as §1
This assay was performed similarly to the human assay described above, but using HEK293 cells transfected with rat TRPV1 (rTRPV1/HEK293).
as §2

T1 sequence (Q8NER1 whole entry): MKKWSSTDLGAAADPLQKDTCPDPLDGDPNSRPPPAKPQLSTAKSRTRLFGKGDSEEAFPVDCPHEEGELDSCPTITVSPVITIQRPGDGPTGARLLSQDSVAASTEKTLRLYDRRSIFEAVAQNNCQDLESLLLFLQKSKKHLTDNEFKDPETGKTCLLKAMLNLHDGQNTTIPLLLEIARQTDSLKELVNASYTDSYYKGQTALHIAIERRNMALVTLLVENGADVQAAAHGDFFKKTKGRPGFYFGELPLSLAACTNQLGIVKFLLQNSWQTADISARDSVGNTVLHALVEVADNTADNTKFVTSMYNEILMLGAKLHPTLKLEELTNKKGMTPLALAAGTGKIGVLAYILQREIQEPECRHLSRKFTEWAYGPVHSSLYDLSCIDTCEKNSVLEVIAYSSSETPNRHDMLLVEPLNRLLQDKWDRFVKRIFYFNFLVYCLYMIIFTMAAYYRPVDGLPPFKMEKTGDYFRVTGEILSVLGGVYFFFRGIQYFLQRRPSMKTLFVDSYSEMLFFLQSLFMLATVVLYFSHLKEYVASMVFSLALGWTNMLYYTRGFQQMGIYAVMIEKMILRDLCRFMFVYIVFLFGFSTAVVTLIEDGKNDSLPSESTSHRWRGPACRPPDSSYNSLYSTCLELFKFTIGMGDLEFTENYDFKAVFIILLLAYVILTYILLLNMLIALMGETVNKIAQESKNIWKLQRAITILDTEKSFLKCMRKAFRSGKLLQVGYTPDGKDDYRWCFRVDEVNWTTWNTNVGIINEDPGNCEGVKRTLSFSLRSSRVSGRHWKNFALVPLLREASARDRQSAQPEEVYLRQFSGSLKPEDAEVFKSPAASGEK
T2 sequence (O35433 whole entry): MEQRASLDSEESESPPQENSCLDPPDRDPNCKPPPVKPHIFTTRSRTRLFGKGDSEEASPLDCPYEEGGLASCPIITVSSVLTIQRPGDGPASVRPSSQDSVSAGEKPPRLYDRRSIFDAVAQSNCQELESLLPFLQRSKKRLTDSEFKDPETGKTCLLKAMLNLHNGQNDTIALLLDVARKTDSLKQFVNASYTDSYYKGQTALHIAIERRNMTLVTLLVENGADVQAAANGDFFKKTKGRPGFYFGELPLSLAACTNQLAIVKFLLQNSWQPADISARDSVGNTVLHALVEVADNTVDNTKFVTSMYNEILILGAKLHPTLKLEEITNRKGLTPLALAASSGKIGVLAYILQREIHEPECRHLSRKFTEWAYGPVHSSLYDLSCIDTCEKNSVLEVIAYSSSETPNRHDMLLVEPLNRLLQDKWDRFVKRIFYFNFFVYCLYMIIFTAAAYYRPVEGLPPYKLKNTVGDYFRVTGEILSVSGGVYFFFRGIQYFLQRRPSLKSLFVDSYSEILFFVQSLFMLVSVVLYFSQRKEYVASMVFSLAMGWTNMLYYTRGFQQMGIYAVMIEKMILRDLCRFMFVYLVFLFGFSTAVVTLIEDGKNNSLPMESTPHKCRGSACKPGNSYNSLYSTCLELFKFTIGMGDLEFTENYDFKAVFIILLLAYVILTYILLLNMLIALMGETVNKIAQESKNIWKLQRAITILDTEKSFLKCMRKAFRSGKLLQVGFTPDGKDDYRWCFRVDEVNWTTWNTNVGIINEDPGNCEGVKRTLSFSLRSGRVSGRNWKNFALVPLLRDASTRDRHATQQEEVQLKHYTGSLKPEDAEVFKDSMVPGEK

SMILES	pIC50 (human TRPV1)	pIC50 (rat TRPV1)
Cc1ccccc1Cc1nc2c(Nc3ccc(C(F)(F)F)cc3)ncnc2s1 [Example 17, 2-(2-Methylbenzyl)-N-[4-(trifluoromethyl)phenyl][1,3]thiazolo[5,4-d]pyrimidin-7-amine]	6.83	6.84
Cc1ccccc1Cc1nc2c(Nc3ccc(C(F)(F)F)nc3)ncnc2s1 [Example 18, 2-(2-Methylbenzyl)-N-[6-(trifluoromethyl)pyridin-3-yl][1,3]thiazolo[5,4-d]pyrimidin-7-amine]	7.07	6.81
FC(F)(F)c1ccc(Nc2ncnc3sc(Cc4ccccc4Cl)nc23)cc1 [Example 20, 2-(2-Chlorobenzyl)-N-[4-(trifluoromethyl)phenyl][1,3]thiazolo[5,4-d]pyrimidin-7-amine]	7.40	7.49
FC(F)(F)c1ccc(Nc2ncnc3sc(Cc4ccccc4Cl)nc23)cn1 [Example 21, 2-(2-Chlorobenzyl)-N-[6-(trifluoromethyl)pyridin-3-yl][1,3]thiazolo[5,4-d]pyrimidin-7-amine]	7.10	7.27
FC(F)(F)c1ccccc1Nc1ncnc2sc(Cc3c(Cl)cccc3Cl)nc12 [Example 23, 2-(2,6-Dichlorobenzyl)-N-[2-(trifluoromethyl)phenyl][1,3]thiazolo[5,4-d]pyrimidin-7-amine]	< 5.18	5.75
FC(F)(F)c1cccc(Nc2ncnc3sc(Cc4c(Cl)cccc4Cl)nc23)c1 [Example 24, 2-(2,6-Dichlorobenzyl)-N-[3-(trifluoromethyl)phenyl][1,3]thiazolo[5,4-d]pyrimidin-7-amine]	6.08	6.71
CC(C)(C)c1ccc(Nc2ncnc3sc(Cc4c(Cl)cccc4Cl)nc23)cc1 [Example 25, N-(4-tert-Butylphenyl)-2-(2,6-dichlorobenzyl)[1,3]thiazolo[5,4-d]pyrimidin-7-amine]	7.27	7.96
FC(F)(F)c1ccc(Nc2ncnc3sc(Cc4ccccc4)nc23)cc1 [Example 32, 2-Benzyl-N-[4-(trifluoromethyl)phenyl][1,3]thiazolo[5,4-d]pyrimidin-7-amine]	5.53	7.26
FC(F)(F)c1ccc(Nc2ncnc3sc(Cc4ccccc4)nc23)cn1 [Example 33, 2-Benzyl-N-[6-(trifluoromethyl)pyridin-3-yl][1,3]thiazolo[5,4-d]pyrimidin-7-amine]	6.09	6.95
CS(=O)(=O)c1ccc(Nc2ncnc3sc(Cc4ccccc4)nc23)cc1 [Example 34, 2-Benzyl-N-[4-(methylsulfonyl)phenyl][1,3]thiazolo[5,4-d]pyrimidin-7-amine]	5.48	5.84
FC(F)(F)c1ccc(Nc2ncnc3sc(Cc4ccc(Cl)cc4)nc23)cn1 [Example 36, 2-(4-Chlorobenzyl)-N-[6-(trifluoromethyl)pyridin-3-yl][1,3]thiazolo[5,4-d]pyrimidin-7-amine]	5.64	7.10
COc1ccc(Nc2ncnc3sc(Cc4c(Cl)cccc4Cl)nc23)cc1 [Example 37, 2-(2,6-Dichlorobenzyl)-N-(4-methoxyphenyl)[1,3]thiazolo[5,4-d]pyrimidin-7-amine]	6.48	6.62
Fc1ccc(Nc2ncnc3sc(Cc4c(Cl)cccc4Cl)nc23)cc1 [Example 39, 2-(2,6-Dichlorobenzyl)-N-(4-fluorophenyl)[1,3]thiazolo[5,4-d]pyrimidin-7-amine]	6.65	6.72
Clc1cccc(Cl)c1Cc1nc2c(Nc3ccc(Br)cc3)ncnc2s1 [Example 41, N-(4-Bromophenyl)-2-(2,6-dichlorobenzyl)[1,3]thiazolo[5,4-d]pyrimidin-7-amine]	7.49	7.54
CC(C)(C#N)c1ccc(Nc2ncnc3sc(Cc4c(Cl)cccc4Cl)nc23)cc1 [Example 42, 2-(4-{[2-(2,6-Dichlorobenzyl)[1,3]thiazolo[5,4-d]pyrimidin-7-yl]amino}phenyl)-2-methylpropanenitrile]	7.00	7.25
Clc1cccc(Cl)c1Cc1nc2c(Nc3ccccc3)ncnc2s1 [Example 43, 2-(2,6-Dichlorobenzyl)-N-phenyl[1,3]thiazolo[5,4-d]pyrimidin-7-amine]	6.57	6.78
Cc1ccc(Nc2ncnc3sc(Cc4c(Cl)cccc4Cl)nc23)cc1 [Example 46, 2-(2,6-Dichlorobenzyl)-N-(4-methylphenyl)[1,3]thiazolo[5,4-d]pyrimidin-7-amine]	< 5.18	7.28
CC(C)(C(N)=O)c1ccc(Nc2ncnc3sc(Cc4c(Cl)cccc4Cl)nc23)cc1 [Example 47, 2-(4-{[2-(2,6-Dichlorobenzyl)[1,3]thiazolo[5,4-d]pyrimidin-7-yl]amino}phenyl)-2-methylpropanamide]	5.05	5.35
FC(F)(F)c1ccccc1Cc1nc2c(Nc3ccc(Br)cc3)ncnc2s1 [Example 49, N-(4-Bromophenyl)-2-[2-(trifluoromethyl)benzyl][1,3]thiazolo[5,4-d]pyrimidin-7-amine]	7.23	7.80

Now from value to molecule:

pIC50 (human TRPV1)	pIC50 (rat TRPV1)	SMILES
6.38	5.96	CN1CCN(S(=O)(=O)c2ccc(Nc3ncnc4sc(Cc5c(Cl)cccc5Cl)nc34)cc2)CC1 [Example 16, [2-(2,6-Dichloro-benzyl)-thiazolo[5,4-d]pyrimidin-7-yl]-[4-(4-methyl-piperazine-1-sulfonyl)-phenyl]-amine]
6.33	6.61	Cc1ccccc1Cc1nc2c(Nc3ccc(S(C)(=O)=O)cc3)ncnc2s1 [Example 19, 2-(2-Methylbenzyl)-N-[4-(methylsulfonyl)phenyl][1,3]thiazolo[5,4-d]pyrimidin-7-amine]
6.55	7.48	CS(=O)(=O)c1ccc(Nc2ncnc3sc(Cc4ccccc4Cl)nc23)cc1 [Example 22, 2-(2-Chlorobenzyl)-N-[4-(methylsulfonyl)phenyl][1,3]thiazolo[5,4-d]pyrimidin-7-amine]
6.01	7.38	FC(F)(F)c1ccc(Nc2ncnc3sc(Cc4ccc(Cl)cc4)nc23)cc1 [Example 35, 2-(4-Chlorobenzyl)-N-[4-(trifluoromethyl)phenyl][1,3]thiazolo[5,4-d]pyrimidin-7-amine]
7.31	7.29	Clc1ccc(Nc2ncnc3sc(Cc4c(Cl)cccc4Cl)nc23)cc1 [Example 40, N-(4-Chlorophenyl)-2-(2,6-dichlorobenzyl)[1,3]thiazolo[5,4-d]pyrimidin-7-amine]
6.71	7.36	FC(F)(F)Oc1ccc(Nc2ncnc3sc(Cc4c(Cl)cccc4Cl)nc23)cc1 [Example 44, 2-(2,6-Dichlorobenzyl)-N-[4-(trifluoromethoxy)phenyl][1,3]thiazolo[5,4-d]pyrimidin-7-amine]
6.56	6.74	CS(=O)(=O)c1ccc(Nc2ncnc3sc(Cc4c(Cl)cccc4Cl)nc23)cc1F [Example 45, 2-(2,6-Dichlorobenzyl)-N-[3-fluoro-4-(methylsulfonyl)phenyl][1,3]thiazolo[5,4-d]pyrimidin-7-amine]
6.07	6.39	FC(F)(F)c1ccccc1Cc1nc2c(Nc3ccccc3)ncnc2s1 [Example 48, N-Phenyl-2-[2-(trifluoromethyl)benzyl][1,3]thiazolo[5,4-d]pyrimidin-7-amine]
7.47	8.22	CC(C)(C)c1ccc(Nc2ncnc3sc(Cc4ccccc4C(F)(F)F)nc23)cc1 [Example 50, N-(4-tert-Butylphenyl)-2-[2-(trifluoromethyl)benzyl][1,3]thiazolo[5,4-d]pyrimidin-7-amine]
6.69	7.41	CS(=O)(=O)c1ccc(Nc2ncnc3sc(Cc4ccccc4C(F)(F)F)nc23)cc1 [Example 51, N-[4-(Methylsulfonyl)phenyl]-2-[2-(trifluoromethyl)benzyl][1,3]thiazolo[5,4-d]pyrimidin-7-amine]
7.23	7.36	O=S(=O)(c1ccc(Nc2ncnc3sc(Cc4ccccc4C(F)(F)F)nc23)cc1)N1CCOCC1 [Example 52, N-[4-(Morpholin-4-ylsulfonyl)phenyl]-2-[2-(trifluoromethyl)benzyl][1,3]thiazolo[5,4-d]pyrimidin-7-amine]
